Here are results for nine compounds from patent publication US7332476B2, “Pyridyl substituted ketolide antibiotics” (Novartis AG, priority 2003, dated 2008).

≈ marks a conversion by molar mass, not a printed value.

Common to all, as to experiment: MIC, broth microdilution (NCCLS)
Common to all, as to format: cell-based
On the technique in general: In broth dilution the organism is exposed to a series of concentrations in liquid medium.

Assay [1] deals with Streptococcus pneumoniae Stpn_Erm S 4297. The note with it: Table 7, Strain ID J (Table 6): S. pneumoniae Stpn_Erm S 4297. On the procedure: (§1) Strains. The bacterial isolates listed in Table 4 were cultivated from −70° C. frozen stocks by two consecutive overnight passages (P1, P2) at 35° C. on 5% blood agar (Remel, Lenexa, Kans.). Chocolate agar (Remel) is used for Haemophilus influenzae. H. influenzae and Streptococcus pneumoniae are incubated in 5-10% CO2
(§2) Drug Stock Preparation. To determine the amount of solvent to be used to give the desired final concentration, the formula “weight obtained in mg/final concentration in mg/ml” will be used. It will give the amount of solvent in ml needed to be added to give the desired concentration. For example, if 2.5 mg/ml is the desired concentration and the weight of compound is 13.7 mg, then the amount of solvent to be added is […]. Methanol is used as the solvent to dissolve the test compounds. Further dilution of stock is done in sterile, deionized water. Drug stocks are kept frozen at −70° C., protected from light.
(§3) Susceptibility Testing. MICs are determined by the broth microdilution method in accordance with the NCCLS guidelines. In brief, organism suspensions are adjusted to a 0.5 McFarland standard to yield a final inoculum between 3×10^5 and 7×10^5 CFU/ml. Drug dilutions and inocula are made in sterile, cation adjusted Mueller-Hinton Broth (CAMHB) (Remel) for all but S. pneumoniae [CAMHB with 2-5% lysed horse blood (Remel)] and H. influenzae [Haemophilus Test Medium (Remel)]. An inoculum volume of 100 μl is added to wells containing 100 μl of broth with 2-fold serial dilutions of drug. All inoculated microdilution trays are incubated in ambient air at 35° C. for 18-24 hours, except for S. pneumoniae, and H. influenzae (both at 5-10% CO2).
(§4) Following appropriate incubation, the MIC is determined and the MIC is defined as the lowest concentration of the drug that prevented visible growth.
(§5) Strains. The bacterial isolates listed in Table 8 were cultivated from −70° C. frozen stocks by two consecutive overnight passages (P1, P2) at 35° C. on 5% blood agar (Remel, Lenexa, Kans.). Chocolate agar (Remel) is used for Haemophilus influenzae. H. influenzae and Streptococcus pneumoniae are incubated in 5-10% CO2
(§6) Following appropriate incubation, the MIC is determined and the MIC is defined as the lowest concentration of the drug that prevented visible growth. […] Antibacterial activity of representative compounds of the invention were compared against telitromycin.

In assay [2] the test system is Streptococcus pneumoniae Stpn_Mef S 3427. The note with it: Table 7, Strain ID L (Table 6): S. pneumoniae Stpn_Mef S 3427. On the procedure:
as §1, §2, §3, §4, §5, §6

Assay [3] deals with Streptococcus pneumoniae Stpn_297-749. Conditions: Table 7, Strain ID G (Table 6): S. pneumoniae Stpn_297-749. The method, then: as §1, §2, §3, §4, §5, §6
For assay [4], the system named is Streptococcus pneumoniae Stpn_49619. Conditions: Table 7, Strain ID F (Table 6): S. pneumoniae Stpn_49619. The method, then:
as §1, §2, §3, §4, §5, §6

The subject of assay [5] is Streptococcus pneumoniae Stpn_280-962. The note with it: Table 7, Strain ID H (Table 6): S. pneumoniae Stpn_280-962. The method, then: as §1, §2, §3, §4, §5, §6
Assay [6] relates to Streptococcus pyogenes Stpy_8668. Conditions: Table 7, Strain ID E (Table 6): S. pyogenes Stpy_8668. The method, then:
as §1, §2, §3, §4, §5, §6

For assay [7], the system named is Staphylococcus epidermidis Step_14990. The note with it: Table 7, Strain ID B (Table 6): S. epidermidis Step_14990; in µg/mL (unit assumed). The method, then: as §1, §2, §3, §4, §5, §6
For assay [8], the system named is Enterococcus faecalis Enfa_29212. The note with it: Table 7, Strain ID D (Table 6): E. faecalis Enfa_29212; in µg/mL (unit assumed). On the procedure: as §1, §2, §3, §4, §5, §6
The test system of assay [9] is Haemophilus influenzae Hain_49247. Conditions: Table 7, Strain ID M (Table 6): H. influenzae Hain_49247; unit assumed. The method, then:
as §1, §2, §3, §4, §5, §6

Take `C=C[C@]12OC(=O)N(CCCCn3cnc(-c4cccnc4)c3)[C@@H]1[C@@H](C)C(=O)[C@H](C)C[C@](C)(OC)[C@H](OC1O[C@H](C)C[C@H](N(C)C)[C@H]1O)[C@@H](C)C(=O)[C@](C)(F)C(=O)O[C@@H]2CC` (stereo partly drawn) [Example 49, (3aS,4R,7S,9R,10R,11S,13R,15R,15aR)-4-ethyl-7-fluoro-11-methoxy-7,9,11,13,15-pentamethyl-2,6,8,14-tetraoxo-1-[4-(4-pyridin-3-yl-1H-imidazol-1-yl)butyl]-3a-vinyltetradecahydro-1H-oxacyclotetradecino[4,3-d][1,3]oxazol-10-yl-3,4,6-trideoxy-3-(dimethylamino)-D-xylo-hexopyranoside]: the MIC result in [1], in assay [2], in [3], in assay [4], in assay [5] and in assay [6] was “=0.05” in each case.
`CC[C@H]1OC(=O)[C@@](C)(F)C(=O)[C@H](C)[C@@H](OC2O[C@H](C)C[C@H](N(C)C)[C@H]2O)[C@@](C)(OC)C[C@@H](C)C(=O)[C@H](C)[C@H]2N(CCCC(C)(C)n3cnc(-c4cccnc4)c3)C(=O)O[C@]12CC` (stereo partly drawn) [Example 32, (3aS,4R,7S,9R,10R,11S,13R,15R,15aR)-3a,4-diethyl-7-fluoro-11-methoxy-7,9,11,13,15-pentamethyl-1-[4-methyl-4-(4-pyridin-3-yl-1H-imidazol-1-yl)pentyl]-2,6,8,14-tetraoxotetradecahydro-2H-oxacyclotetradecino[4,3-d][1,3]oxazol-10-yl-3,4,6-trideoxy-3-(dimethylamino)-D-xylo-hexopyranoside]: the MIC result in assay [1], in [3], in [4], in assay [5] and in assay [6] was “=0.05” throughout.
For `CC[C@H]1OC(=O)[C@H](C)C(=O)[C@H](C)[C@@H](OC2O[C@H](C)C[C@H](N(C)C)[C@H]2O)[C@@](C)(OC)C[C@@H](C)C(=O)[C@H](C)[C@H]2N(CCN(C)Cc3cccnc3)C(=O)O[C@]12CC` (stereo partly shown) [Example 23], the MIC entry in [3], in assay [4], in assay [5] and in [6] was “=0.05” in each case.
As to `C=C[C@]12OC(=O)N(CCCC(C)(C)n3cnc(-c4cccnc4)c3)[C@@H]1[C@@H](C)C(=O)[C@H](C)C[C@](C)(OC)[C@H](OC1O[C@H](C)C[C@H](N(C)C)[C@H]1O)[C@@H](C)C(=O)[C@@H](C)C(=O)O[C@@H]2CC` (stereo partly drawn) [Example 50, (3aS,4R,7R,9R,10R,11S,13R,15R,15aR)-4-ethyl-11-methoxy-7,9,11,13,15-pentamethyl-1-[4-methyl-4-(4-pyridin-3-yl-1H-imidazol-1-yl)pentyl]-2,6,8,14-tetraoxo-3a-vinyltetradecahydro-1H-oxacyclotetradecino[4,3-d][1,3]oxazol-10-yl-3,4,6-trideoxy-3-(dimethylamino)-D-xylo-hexopyranoside], the MIC entry in assay [1], in [3], in assay [4], in assay [5] and in assay [6] was “=0.05” in each case.
As to `CC[C@H]1OC(=O)[C@H](C)C(=O)[C@H](C)[C@@H](OC2O[C@H](C)C[C@H](N(C)C)[C@H]2O)[C@@](C)(OC)C[C@@H](C)C(=O)[C@H](C)[C@H]2N(CCCCn3cnc4cccnc43)C(=O)O[C@]12CC` (stereo partly drawn) [Example 14, (3aS,4R,7R,9R,10R,11S,13R,15R,15aR)-3a,4-DIETHYL-1-[4-(3H-IMIDAZO[4,5-B]PYRIDIN-3-YL)BUTYL]-11-METHOXY-7,9,11,13,15-PENTAMETHYL-2,6,8,14-TETRAOXOTETRADECAHYDRO-2H-OXACYCLOTETRADECINO[4,3-D][1,3]OXAZOL-10-YL-3,4,6-TRIDEOXY-3-(DIMETHYLAMINO)-D-XYLO-HEXOPYRANOSIDE], the MIC entry in [2], in assay [3], in [4], in assay [5] and in assay [6] was “=0.05” throughout.
`CC[C@H]1OC(=O)[C@H](C)C(=O)[C@H](C)[C@@H](OC2O[C@H](C)C[C@H](N(C)C)[C@H]2O)[C@@](C)(OC)C[C@@H](C)C(=O)[C@H](C)[C@H]2N(CCCCc3ccnc4ccccc34)C(=O)O[C@]12CC` (stereo partly drawn) [Example 15, (3aS,4R,7R,9R,10R,11S,13R,15R,15aR)-3a,4-DIETHYL-11-METHOXY-7,9,11,13,15-PENTAMETHYL-2,6,8,14-TETRAOXO-1-(4-QUINOLIN-4-YLBUTYL)TETRADECAHYDRO-2H-OXACYCLOTETRADECINO[4,3-D][1,3]OXAZOL-10-YL-3,4,6-TRIDEOXY-3-(DIMETHYLAMINO)-D-XYLO-HEXOPYRANOSIDE]: the MIC in [7] was 0.2; in assay [1] (unit assumed), 0.1 µg/mL (≈ 0.123 µM); in [2], “=0.05”; in assay [8], 0.1; in [9], 3.13 µg/mL (≈ 3.86 µM); in [3], “=0.05”. Besides, the MIC result in assay [4], in assay [5] and in assay [6] was “=0.05” throughout.
Turning to `CC[C@H]1OC(=O)[C@H](C)C(=O)[C@H](C)[C@@H](OC2O[C@H](C)C[C@H](N(C)C)[C@H]2O)[C@@](C)(OC)C[C@@H](C)C(=O)[C@H](C)[C@H]2N(CCCC(C)(C)n3cnc4ncccc43)C(=O)O[C@]12CC` (stereo partly drawn) [Example 37, (3aS,4R,7R,9R,10R,11S,13R,15R,15aR)-3a,4-diethyl-1-[4-(1H-imidazo[4,5-b]pyridin-1-yl)-4-methylpentyl]-11-methoxy-7,9,11,13,15-pentamethyl-2,6,8,14-tetraoxotetradecahydro-2H-oxacyclotetradecino[4,3-d][1,3]oxazol-10-yl-3,4,6-trideoxy-3-(dimethylamino)-D-xylo-hexopyranoside], the MIC result in assay [3], in assay [4], in [5] and in assay [6] was “=0.05” each time.
For the compound `CC[C@H]1OC(=O)[C@H](C)C(=O)[C@H](C)[C@@H](OC2O[C@H](C)C[C@H](N(C)C)[C@H]2O)[C@@](C)(OC)C[C@@H](C)C(=O)[C@H](C)[C@H]2N(CCCCc3ccc4ccccc4n3)C(=O)O[C@]12CC` (stereo partly drawn) [Example 18, (3aS,4R,7R,9R,10R,11S,13R,15R,15aR)-3a,4-diethyl-11-methoxy-7,9,11,13,15-pentamethyl-2,6,8,14-tetraoxo-1-(4-quinolin-2-ylbutyl)tetradecahydro-2H-oxacyclotetradecino[4,3-d][1,3]oxazol-10-yl-3,4,6-trideoxy-3-(dimethylamino)-D-xylo-hexopyranoside], the MIC entry in assay [2], in assay [3], in assay [4] and in [5] was “=0.05” throughout.
As for `CC[C@H]1OC(=O)[C@H](C)C(=O)[C@H](C)[C@@H](OC2O[C@H](C)C[C@H](N(C)C)[C@H]2O)[C@@](C)(OC)C[C@@H](C)C(=O)[C@H](C)[C@H]2N(CCCCn3cnc4ncccc43)C(=O)O[C@]12CC` (stereo partly drawn) [Example 22, (3aS,4R,7R,9R,10R,11S,13R,15R,15aR)-3a,4-diethyl-1-[4-(1H-imidazo[4,5-b]pyridin-1-yl)butyl]-11-methoxy-7,9,11,13,15-pentamethyl-2,6,8,14-tetraoxotetradecahydro-2H-oxacyclotetradecino[4,3-d][1,3]oxazol-10-yl-3,4,6-trideoxy-3-(dimethylamino)-D-xylo-hexopyranoside], the MIC result in assay [3], in assay [4], in [5] and in assay [6] was “=0.05” throughout.
